Measured values from ChEMBL document CHEMBL3297661, “1-Substituted-5-[(3,5-dinitrobenzyl)sulfanyl]-1H-tetrazoles and their isosteric analogs: A new class of selective antitubercular agents active against drug-susceptible and multidrug-resistant mycobacteria” (Eur J Med Chem, 2014).
Values after ≈ are worked out from the molar mass of the structure shown.

Key:
Trichosporon asahii = assay: Antifungal activity against Trichosporon asahii 1188 after 24 hrs by broth microdilution method; type: functional; details: Trichosporon asahii, 1188, 24 h
Candida albicans = assay: Antifungal activity against Candida albicans ATCC 44859 after 24 hrs by broth microdilution method; type: functional; details: ATCC 44859, 24 h
Aspergillus fumigatus = assay: Antifungal activity against Aspergillus fumigatus 231 after 24 hrs by broth microdilution method; type: functional, organism-based; details: Aspergillus fumigatus, 231, 24 h
[1] = system: Trichophyton mentagrophytes; assay: Antifungal activity against Trichophyton mentagrophytes 445 after 72 hrs by broth microdilution method; type: functional, organism-based; details: Trichophyton mentagrophytes, 445, 72 h
Pichia kudriavzevii = assay: Antifungal activity against Candida krusei E28 after 24 hrs by broth microdilution method; type: functional; details: E28, 24 h
Candida tropicalis = assay: Antifungal activity against Candida tropicalis 156 after 24 hrs by broth microdilution method; type: functional; details: Candida tropicalis, 156, 24 h
Lichtheimia corymbifera = assay: Antifungal activity against Absidia corymbifera 272 after 24 hrs by broth microdilution method; type: functional, organism-based; details: Lichtheimia corymbifera, 272, 24 h
[2] = Cytotoxicity against human HuH7 cells assessed as reduction in cell viability after 48 hrs by MTT assay; type: cell-based; details: Huh-7, 48 h
Mycobacterium avium [3] = assay: Antimycobacterial activity against Mycobacterium avium CNCTC My 330/88 after 21 days by micromethod; type: functional; details: CNCTC My 330/88, 504 h
[4] = Cytotoxicity against MDCK2 cells assessed as cell viability at 30 uM after 48 hrs by MTT assay; type: cell-based, Canis lupus familiaris, MDCK-II; details: dog, read-out: Activity
Mycobacterium kansasii [5] = assay: Antimycobacterial activity against Mycobacterium kansasii 6509/96 after 21 days by micromethod; type: functional; details: 6509/96, 504 h
Mycobacterium kansasii [6] = assay: Antimycobacterial activity against Mycobacterium kansasii CNCTC My 235/80 after 14 days by micromethod; type: functional; details: CNCTC My 235/80, 336 h
Mycobacterium avium [7] = assay: Antimycobacterial activity against Mycobacterium avium CNCTC My 330/88 after 14 days by micromethod; type: functional; details: CNCTC My 330/88, 336 h
[8] = Cytotoxicity against human HepG2 cells assessed as cell viability at 30 uM after 48 hrs by MTT assay; type: cell-based; details: read-out: Activity
Mycobacterium kansasii [9] = assay: Antimycobacterial activity against Mycobacterium kansasii 6509/96 after 7 days by micromethod; type: functional; details: 6509/96, 168 h
[10] = system: Mycobacterium tuberculosis; assay: Antimycobacterial activity against Mycobacterium tuberculosis CNCTC My 331/88 after 14 days by micromethod; type: functional; details: CNCTC My 331/88, 336 h
HeLa = assay: Cytotoxicity against human HeLa cells assessed as reduction in cell viability after 48 hrs by MTT assay; type: cell-based
[11] = Cytotoxicity against MDCK2 cells assessed as reduction in cell viability after 48 hrs by MTT assay; type: cell-based; details: Canis lupus familiaris, MDCK-II
[12] = Cytotoxicity against human HeLa cells assessed as cell viability at 30 uM after 48 hrs by MTT assay; type: cell-based; details: read-out: Activity
HepG2 = assay: Cytotoxicity against human HepG2 cells assessed as reduction in cell viability after 48 hrs by MTT assay; type: cell-based; details: HepG2, 48 h
Mycobacterium kansasii [13] = assay: Antimycobacterial activity against Mycobacterium kansasii CNCTC My 235/80 after 7 days by micromethod; type: functional; details: CNCTC My 235/80, 168 h
[14] = system: Mycobacterium tuberculosis; assay: Antimycobacterial activity against Mycobacterium tuberculosis CNCTC My 331/88 after 21 days by micromethod; type: functional; details: CNCTC My 331/88, 504 h
[15] = Cytotoxicity against human HuH7 cells assessed as cell viability at 30 uM after 48 hrs by MTT assay; type: cell-based, Huh-7; details: read-out: Activity
Mycobacterium kansasii [16] = assay: Antimycobacterial activity against Mycobacterium kansasii CNCTC My 235/80 after 21 days by micromethod; type: functional; details: CNCTC My 235/80, 504 h
Mycobacterium kansasii [17] = assay: Antimycobacterial activity against Mycobacterium kansasii 6509/96 after 14 days by micromethod; type: functional; details: 6509/96, 336 h

OC(Cn1cncn1)(Cn1cncn1)c1ccc(F)cc1F [FLUCONAZOLE]
IC80 (Trichosporon asahii): 210 µM
IC80 (Candida albicans): 0.82 µM
IC50 (Aspergillus fumigatus): > 500 µM
IC50 [1]: 105 µM
IC80 (Pichia kudriavzevii): 105 µM
IC80 (Candida tropicalis): 1.6 µM
IC50 (Lichtheimia corymbifera): > 500 µM

O=[N+]([O-])c1cc(COc2nnnn2-c2ccc(Cl)c(Cl)c2)cc([N+](=O)[O-])c1
IC50 [2]: > 30 µM
MIC (Mycobacterium avium [3]): 62 µM (≈ 25.5 µg/mL)
viability at 48 h, 30 µM [4]: 22%
MIC (Mycobacterium kansasii [5]): 32 µM (≈ 13.2 µg/mL)
MIC (Mycobacterium kansasii [6]): 16 µM (≈ 6.58 µg/mL)
MIC (Mycobacterium avium [7]): 32 µM (≈ 13.2 µg/mL)
viability at 48 h, 30 µM [8]: 27%
MIC (Mycobacterium kansasii [9]): 4 µM (≈ 1.64 µg/mL)
MIC [10]: 4 µM (≈ 1.64 µg/mL)
IC50 (HeLa): > 30 µM
IC50 [11]: 22 µM
viability at 48 h, 30 µM [12]: 69%
IC50 (HepG2): 25 µM
MIC (Mycobacterium kansasii [13]): 4 µM (≈ 1.64 µg/mL)
MIC [14]: 4 µM (≈ 1.64 µg/mL)
viability at 48 h, 30 µM [15]: 111%
MIC (Mycobacterium kansasii [16]): 32 µM (≈ 13.2 µg/mL)
MIC (Mycobacterium kansasii [17]): 16 µM (≈ 6.58 µg/mL)
